Assays:
Assay type in all cases: biochemical, human/mammalian
Conditions in all cases: compound at 10 μM, read-out: % of activity respect of the control
ERK8 = target: T1, ERK8 (Homo sapiens, UniProt Q8TD08); assay: Kinase panel: ERK8
T1 sequence (Q8TD08 1-544): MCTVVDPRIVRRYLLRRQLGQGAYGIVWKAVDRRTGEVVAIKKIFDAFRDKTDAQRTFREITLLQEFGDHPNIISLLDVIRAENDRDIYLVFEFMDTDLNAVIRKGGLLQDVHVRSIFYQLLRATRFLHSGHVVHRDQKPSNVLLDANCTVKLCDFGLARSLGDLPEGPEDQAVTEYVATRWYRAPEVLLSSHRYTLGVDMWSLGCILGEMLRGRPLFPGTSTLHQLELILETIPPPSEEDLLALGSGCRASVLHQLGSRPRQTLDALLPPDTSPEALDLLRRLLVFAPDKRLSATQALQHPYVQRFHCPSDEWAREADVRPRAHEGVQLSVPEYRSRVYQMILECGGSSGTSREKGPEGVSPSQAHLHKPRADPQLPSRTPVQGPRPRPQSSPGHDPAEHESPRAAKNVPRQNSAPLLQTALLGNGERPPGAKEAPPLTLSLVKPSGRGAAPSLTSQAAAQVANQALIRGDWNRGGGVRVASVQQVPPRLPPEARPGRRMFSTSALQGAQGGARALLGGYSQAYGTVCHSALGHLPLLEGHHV
Description: (§1) The DDU kinase-focused compound set contains lead-like scaffolds that are designed to target protein kinases; they have kinase hinge binding motifs. Four of the 1H-imidazopyrazinones were screened against a human/mammalian kinase panel at the University of Dundee (http://www.kinase-screen.mrc.ac.uk) at a concentration of 10 μM. At the time of testing the panel contained 79 mammalian kinases selected to provide a broad coverage of the mammalian kinome (∼500 kinases in the human genome).[3] None of the compounds were active against any of the kinases at 10 μM.

FGF-R1 = FGF-R1 (Homo sapiens, UniProt P11362); assay: Kinase panel: FGF-R1
Description: as §1

p38g MAPK = target: T2, p38g MAPK (Homo sapiens, UniProt P53778); assay: Kinase panel: p38g MAPK
T2 sequence (P53778 1-367): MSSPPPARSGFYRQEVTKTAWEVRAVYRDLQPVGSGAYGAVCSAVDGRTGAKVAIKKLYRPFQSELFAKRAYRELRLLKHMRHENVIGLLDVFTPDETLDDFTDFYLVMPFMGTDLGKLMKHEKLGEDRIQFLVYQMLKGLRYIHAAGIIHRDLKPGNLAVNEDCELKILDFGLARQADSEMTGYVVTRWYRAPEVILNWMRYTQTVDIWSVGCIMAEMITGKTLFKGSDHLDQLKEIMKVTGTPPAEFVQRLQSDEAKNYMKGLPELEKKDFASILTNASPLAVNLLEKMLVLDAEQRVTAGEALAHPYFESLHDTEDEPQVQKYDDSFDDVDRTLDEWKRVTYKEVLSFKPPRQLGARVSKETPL
Description: as §1

EPH-B3 = target: T3, EPH-B3 (Homo sapiens, UniProt P54753); assay: Kinase panel: EPH-B3
T3 sequence (P54753 34-998): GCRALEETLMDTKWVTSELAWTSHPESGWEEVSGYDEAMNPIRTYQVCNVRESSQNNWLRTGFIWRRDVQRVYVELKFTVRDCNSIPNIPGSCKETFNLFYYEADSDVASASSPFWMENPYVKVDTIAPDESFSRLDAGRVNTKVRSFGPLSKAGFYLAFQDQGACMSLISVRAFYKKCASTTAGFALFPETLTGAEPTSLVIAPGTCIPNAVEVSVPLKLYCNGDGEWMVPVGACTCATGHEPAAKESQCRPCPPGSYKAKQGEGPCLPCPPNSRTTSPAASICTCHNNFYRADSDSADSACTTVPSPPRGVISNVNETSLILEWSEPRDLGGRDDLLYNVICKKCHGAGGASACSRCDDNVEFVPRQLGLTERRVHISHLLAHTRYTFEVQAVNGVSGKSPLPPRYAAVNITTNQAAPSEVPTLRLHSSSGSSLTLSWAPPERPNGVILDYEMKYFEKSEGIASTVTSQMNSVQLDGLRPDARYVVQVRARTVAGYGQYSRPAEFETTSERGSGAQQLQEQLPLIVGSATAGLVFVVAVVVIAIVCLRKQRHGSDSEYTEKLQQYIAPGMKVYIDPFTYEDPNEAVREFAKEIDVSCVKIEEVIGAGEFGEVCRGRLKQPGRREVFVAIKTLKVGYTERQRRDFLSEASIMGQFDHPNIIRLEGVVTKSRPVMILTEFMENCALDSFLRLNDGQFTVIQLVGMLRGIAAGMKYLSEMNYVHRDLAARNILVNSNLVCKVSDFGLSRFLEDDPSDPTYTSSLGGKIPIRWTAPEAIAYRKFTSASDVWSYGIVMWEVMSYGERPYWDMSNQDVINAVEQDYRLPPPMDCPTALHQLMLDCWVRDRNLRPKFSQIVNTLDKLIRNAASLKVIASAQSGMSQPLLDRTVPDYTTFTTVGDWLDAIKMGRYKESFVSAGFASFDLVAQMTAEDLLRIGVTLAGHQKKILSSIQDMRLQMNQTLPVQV
Description: as §1

MAPKAP-K2 = MAPKAP-K2 (Homo sapiens, UniProt P49137); assay: Kinase panel: MAPKAP-K2
Description: as §1

DYRK2 = target: T4, DYRK2 (Homo sapiens, UniProt Q92630); assay: Kinase panel: DYRK2
T4 sequence (Q92630 1-601): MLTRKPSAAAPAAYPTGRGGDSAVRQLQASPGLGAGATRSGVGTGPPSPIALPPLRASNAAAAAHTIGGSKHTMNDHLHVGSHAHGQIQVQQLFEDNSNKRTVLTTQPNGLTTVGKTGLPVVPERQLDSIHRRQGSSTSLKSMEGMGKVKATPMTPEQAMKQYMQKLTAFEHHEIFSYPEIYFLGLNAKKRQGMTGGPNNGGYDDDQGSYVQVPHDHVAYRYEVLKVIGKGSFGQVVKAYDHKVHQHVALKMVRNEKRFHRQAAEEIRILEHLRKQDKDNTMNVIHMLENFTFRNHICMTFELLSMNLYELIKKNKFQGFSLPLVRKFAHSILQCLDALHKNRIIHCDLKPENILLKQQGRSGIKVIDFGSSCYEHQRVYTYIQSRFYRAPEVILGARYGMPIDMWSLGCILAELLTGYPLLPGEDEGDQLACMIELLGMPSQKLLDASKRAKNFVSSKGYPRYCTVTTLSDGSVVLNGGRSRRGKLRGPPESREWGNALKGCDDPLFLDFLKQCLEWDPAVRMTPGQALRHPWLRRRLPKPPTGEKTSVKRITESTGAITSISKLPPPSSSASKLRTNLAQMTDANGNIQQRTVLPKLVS
Description: as §1

MSK1 = MSK1 (Homo sapiens, UniProt O75582); assay: Kinase panel: MSK1
Description: as §1

MELK = MELK (Homo sapiens, UniProt Q14680); assay: Kinase panel: MELK
Description: as §1

Sequence of MSK1 (O75582 whole entry): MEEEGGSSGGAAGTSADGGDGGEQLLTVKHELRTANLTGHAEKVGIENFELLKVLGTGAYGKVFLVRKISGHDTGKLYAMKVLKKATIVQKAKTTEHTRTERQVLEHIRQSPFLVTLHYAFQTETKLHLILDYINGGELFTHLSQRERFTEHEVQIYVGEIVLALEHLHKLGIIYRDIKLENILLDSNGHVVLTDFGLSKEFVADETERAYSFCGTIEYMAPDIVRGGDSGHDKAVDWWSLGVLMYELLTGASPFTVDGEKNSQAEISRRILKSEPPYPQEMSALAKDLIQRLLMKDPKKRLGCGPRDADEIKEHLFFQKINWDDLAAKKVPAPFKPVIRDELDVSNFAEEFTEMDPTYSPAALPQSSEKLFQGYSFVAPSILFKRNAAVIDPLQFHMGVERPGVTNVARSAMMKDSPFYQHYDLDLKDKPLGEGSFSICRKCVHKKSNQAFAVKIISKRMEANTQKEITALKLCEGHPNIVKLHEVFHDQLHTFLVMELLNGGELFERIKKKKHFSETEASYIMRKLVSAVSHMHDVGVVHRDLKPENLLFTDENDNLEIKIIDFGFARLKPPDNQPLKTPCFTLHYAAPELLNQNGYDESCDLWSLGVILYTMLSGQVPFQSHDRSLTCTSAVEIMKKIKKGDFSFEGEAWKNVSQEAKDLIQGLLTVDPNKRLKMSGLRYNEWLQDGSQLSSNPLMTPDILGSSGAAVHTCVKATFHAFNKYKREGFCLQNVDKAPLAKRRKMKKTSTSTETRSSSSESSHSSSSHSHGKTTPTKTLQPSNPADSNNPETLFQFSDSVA
Sequence of MAPKAP-K2 (P49137 whole entry): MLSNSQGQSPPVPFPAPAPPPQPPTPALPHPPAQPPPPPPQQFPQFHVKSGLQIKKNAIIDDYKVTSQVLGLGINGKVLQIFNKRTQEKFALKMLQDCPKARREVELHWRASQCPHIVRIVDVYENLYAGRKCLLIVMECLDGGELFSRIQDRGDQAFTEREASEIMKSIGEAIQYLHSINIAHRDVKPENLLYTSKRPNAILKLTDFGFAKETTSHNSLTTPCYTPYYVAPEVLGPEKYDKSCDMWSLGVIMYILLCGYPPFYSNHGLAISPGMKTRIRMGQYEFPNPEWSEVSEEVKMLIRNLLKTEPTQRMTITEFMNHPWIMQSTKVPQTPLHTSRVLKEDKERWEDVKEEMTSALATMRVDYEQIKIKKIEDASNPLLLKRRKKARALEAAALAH
Sequence of FGF-R1 (P11362 22-822): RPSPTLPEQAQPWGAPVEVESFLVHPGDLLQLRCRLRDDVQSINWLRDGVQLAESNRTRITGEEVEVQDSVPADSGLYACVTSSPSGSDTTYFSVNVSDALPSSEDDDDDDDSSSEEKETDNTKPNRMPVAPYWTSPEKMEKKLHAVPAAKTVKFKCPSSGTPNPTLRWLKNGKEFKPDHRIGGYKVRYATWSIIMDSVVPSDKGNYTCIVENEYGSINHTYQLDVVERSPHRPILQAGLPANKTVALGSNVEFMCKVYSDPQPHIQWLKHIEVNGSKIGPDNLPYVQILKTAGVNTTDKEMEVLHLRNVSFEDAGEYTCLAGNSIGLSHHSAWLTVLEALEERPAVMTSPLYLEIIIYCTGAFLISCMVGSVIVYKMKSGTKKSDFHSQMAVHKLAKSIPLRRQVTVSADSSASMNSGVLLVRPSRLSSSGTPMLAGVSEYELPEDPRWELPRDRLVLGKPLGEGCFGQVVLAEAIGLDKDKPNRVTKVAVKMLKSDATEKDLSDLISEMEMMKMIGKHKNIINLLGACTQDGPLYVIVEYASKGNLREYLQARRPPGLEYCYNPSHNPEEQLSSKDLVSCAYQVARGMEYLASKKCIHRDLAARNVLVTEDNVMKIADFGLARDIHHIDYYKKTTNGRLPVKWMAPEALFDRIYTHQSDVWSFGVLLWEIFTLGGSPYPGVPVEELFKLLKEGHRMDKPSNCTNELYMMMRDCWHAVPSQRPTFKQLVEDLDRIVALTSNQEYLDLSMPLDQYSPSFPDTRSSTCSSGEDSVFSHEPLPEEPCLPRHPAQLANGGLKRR
Sequence of MELK (Q14680 whole entry): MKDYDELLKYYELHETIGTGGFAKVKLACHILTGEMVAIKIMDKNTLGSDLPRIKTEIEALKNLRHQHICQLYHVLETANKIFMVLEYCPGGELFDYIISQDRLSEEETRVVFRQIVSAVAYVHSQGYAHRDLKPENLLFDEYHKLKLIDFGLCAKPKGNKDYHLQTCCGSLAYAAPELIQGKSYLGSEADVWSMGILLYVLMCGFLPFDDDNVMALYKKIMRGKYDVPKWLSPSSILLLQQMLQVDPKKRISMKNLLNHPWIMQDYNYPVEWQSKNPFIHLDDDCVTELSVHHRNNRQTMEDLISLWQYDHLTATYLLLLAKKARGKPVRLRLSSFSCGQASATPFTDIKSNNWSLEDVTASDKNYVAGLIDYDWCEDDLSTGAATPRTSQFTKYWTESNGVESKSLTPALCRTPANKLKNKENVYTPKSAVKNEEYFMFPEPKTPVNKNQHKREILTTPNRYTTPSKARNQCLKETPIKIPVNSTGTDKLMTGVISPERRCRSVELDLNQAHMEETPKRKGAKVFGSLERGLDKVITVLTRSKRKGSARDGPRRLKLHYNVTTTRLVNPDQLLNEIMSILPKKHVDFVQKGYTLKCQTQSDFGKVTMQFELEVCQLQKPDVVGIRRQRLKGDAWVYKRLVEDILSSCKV

SMILES | remaining activity at 10 µM (ERK8) | remaining activity at 10 µM (FGF-R1) | remaining activity at 10 µM (p38g MAPK) | remaining activity at 10 µM (EPH-B3) | remaining activity at 10 µM (MAPKAP-K2) | remaining activity at 10 µM (DYRK2) | remaining activity at 10 µM (MSK1) | remaining activity at 10 µM (MELK)
CC(c1ccccc1)n1c(=O)[nH]c2ncc(-c3ccc(F)cc3)nc21 (centres unmarked) [Compound 1] | 73% | 95% | 98% | 113% | 90% | 100% | 89% | 118%
O=c1[nH]c2ncc(-c3ccc(F)cc3)nc2n1CC1CC1 [Compound 10] | 70% | 88% | 94% | 92% | 104% | 94% | 89% | 125%
O=c1[nH]c2ncc(-c3ccc(F)cc3)nc2n1C1CCCCC1 [Compound 12, 1-Cyclohexyl-6-(4-fluorophenyl)-1H-imidazo[4,5-b]pyrazin-2(3H)-one] | 80% | 96% | 98% | 110% | 101% | 99% | 97% | 110%
C[C@H](c1ccccc1)n1c(=O)[nH]c2ncc(-c3ccccc3)nc21 [Compound 14, (R)-6-Phenyl-1-(1-phenylethyl)-1H-imidazo[4,5-b]pyrazin-2(3H)-one] | 79% | 63% | 91% | 102% | 84% | 89% | 93% | 100%

Reference: article PMC4648050, “Discovery of Inhibitors of Trypanosoma brucei by Phenotypic Screening of a Focused Protein Kinase Library” (Chemmedchem, 2015)
